This passage reports ring closure, isolated yield results from patent US20250320226.

Read-outs that look alike come from different tables or passages of the source.

The compound `C[C@@H]1C/C=C\CCC(OCc2ccccc2)(C(F)(F)F)C2=NN=C(O2)c2nc(c(C(F)(F)F)cc2NC(=O)OC(C)(C)C)O1` (stereo partly drawn) gave a ring closure, isolated yield (from C[C@H](CC[P+](c1ccccc1)(c1ccccc1)c1ccccc1)Oc1nc(-c2nnc(C(CCC=O)(OCc3ccccc3)C(F)(F)F)o2)c(N(C(=O)OC(C)(C)C)C(=O)OC(C)(C)C)cc1C(F)(F)F, other bond, 14-membered ring, NaOtBu, THF, 11.2 mM) of 50%.

“tert-Butyl ((4R,10R)-10-(benzyloxy)-4-methyl-25,10-bis(trifluoromethyl)-3-oxa-1(2,5)-oxadiazola-2(2,6)-pyridinacyclodecaphane-23-yl)carbamate” came in with a ring closure, isolated yield (ether bond, 14-membered ring, PPh3/DIAD, toluene, 30.2 mM) of 52%.

In the case of `C[C@H]1CCCCC[C@](O)(C(F)(F)F)C(=O)NNC(=O)c2nc(c(C(F)(F)F)cc2NC(=O)OC(C)(C)C)O1`, the ring closure, isolated yield (from C[C@@H](CCCCC[C@@](O)(C(=O)O)C(F)(F)F)Oc1nc(C(=O)NN)c(NC(=O)OC(C)(C)C)cc1C(F)(F)F, amide bond, 15-membered ring, HATU/DIEA, DMF (DIEA added in 2-MeTHF), 21.9 mM) worked out at 15%.
